Data set [1] has as its target T1, hTRPM8 (Homo sapiens, UniProt Q7Z2W7).
T1 construct: expressed in transfected cells
The data set can be described thus: hTRPM8 cell line agonist assay (section 2.1). The class given is cell-based. The note with it: for EC50: cell line stably expressing hTRPM8; for EC50 Ratio (WS3): relative to WS3 screened on the same day, greater than one = more potent than WS3. The procedure:
A cell line which stably expresses hTRPM8 was used in biological assays in association with testing the present compounds with cool-tasting or -feeling properties. Typical compound concentrations tested were 100 μM, 50 μM, 10 μM, 1 μM, and 0.5 μM. The present compounds have shown activity as agonists of hTRPM8. Assay results for compounds are illustrated in the table below. EC50 in micromoles (μM) is presented as well as the activity relative to WS3 (an established, commercially available cooling agent). […] A value of 1 indicates the compound is equipotent to WS3 in the assay. […] It is noted that Compounds 2.A1 to 2.S6 in the table below are the Examples described in this application. For example, Compound 2.B 1 is Example 2.2.

Data set [2] has as its system panelists. The data set can be described thus: Sensory studies, cool line scale vs WS-3 (section 2.2). Type of data set: in vivo, human. The note with it: for Sensory Results: compound concentration compared in cooling with a known concentration of WS-3. The text has this: The results are presented relative to a known concentration of WS-3. A more specific detailed example of the sensory evaluation of selected examples are also presented below. […]

For data set [3], the system named is panelists. In words: Sensory study, cooling line scale vs WS-3 (section 1.2). The class given is in vivo, human. The note with it: for Average Cooling: 15 point line scale. The procedure: Three typical sensory studies are described below each followed by a table summarizing sensory results of selected compounds of the invention (Tables 1.2 to 1.4).
(§1) All samples made with Low Sodium Buffer (LSB) pH ˜7.1 and contain 0.1% ethanol.
(§2) Compounds are rated on a 15 point line scale where 45 μM WS-3 (N-Ethyl-p-menthane-3-carboxamide) is ranked as a 5 in cool intensity. In most cases our compounds are tested to determine at what concentration the cooling intensity is equivalent to 45 μM WS-3. In each test, the panelist is presented with a 0 μM control sample, a 45 μM WS-3 control sample and the experimental compound sample and asked to rate the cooling intensity of each sample. Panelists are also asked to rate bitterness. In the table below there was no significant bitterness detected unless otherwise noted. Also, in the table below, n represents the number of tests completed for a given experiment (#panelists×#repetitions).

Data set [4] concerns panelists. The data set can be described thus: Sensory study, cool line scale test vs WS-3 (section 3.2). Type of data set: in vivo, human. To be noted: for Average Cooling: Table 3.2, n = 30. The procedure:
Two typical sensory studies are described below each followed by a table summarizing sensory results of selected compounds of the invention (Tables 3.2 and 3.3).
as §1
as §2, with “The test is a cool line scale test with timed 30 seconds interval. Compounds” for “Compounds”, “intensity. The present compound was” for “intensity. In most cases our compounds are”, “panelist was” for “panelist is”, “Panelists were” for “Panelists are”

Data set [5] addresses T1, hTRPM8. The data set can be described thus: hTRPM8 cell based agonist assay (section 3.1). To be noted: for EC50: mammalian cell line stably expressing TRPM8; for EC50 Ratio (WS3): relative to WS3. The text has this:
The present compounds are useful as modulators of TRPM8. The activity of TRPM8 can be readily monitored in cell based assays using fluorescent calcium-sensitive dyes, membrane potential dyes, or sodium-sensitive dyes. The activity of TRPM8 can also be monitored with electrophysiological set-ups, such as patch-clamping and two-electrode voltage clamping. A mammalian cell line derivative which stably expresses TRPM8 was used in biological assays in association with testing the present compounds with cool-tasting or -feeling properties (Servant et al. US 2007/0259354 A1 and references cited therein). Typical compound concentrations tested were 50 μM, 20 μM, 10 μM, 5 μM, 2 μM, 1 μM, 0.5 μM, 0.1 μM, 0.05 μM, 0.01 μM, and other concentration points in between. The present compounds have shown strong activity as agonists of hTRPM8. Assay results for compounds are illustrated in Table 1 below. Specifically, the Compounds listed in Table 3.1, i.e., Compounds 3.A1 to Compounds 3.D1 are the specific compounds as described above.

The nature of data set [6]: Solubility in LSB. The note with it: Low Sodium Buffer (LSB), aqueous buffer. The class given is physicochemical.
For data set [7], the target named is T1, hTRPM8. In words: hTRPM8 cell based agonist assay (section 1.1). The note with it: mammalian cell line stably expressing TRPM8. The text has this: The present compounds are useful as modulators of TRPM8. The activity of TRPM8 can be readily monitored in cell based assays using fluorescent calcium-sensitive dyes, membrane potential dyes, or sodium-sensitive dyes. The activity of TRPM8 can also be monitored with electrophysiological set-ups, such as patch-clamping and two-electrode voltage clamping. A mammalian cell line derivative which stably expresses TRPM8 was used in biological assays in association with testing the present compounds with cool-tasting or -feeling properties (Servant et al. US 2007/0259354 A1 and references cited therein). Typical compound concentrations tested were 100 μM, 50 μM, 10 μM, 1 μM, and 0.5 μM. The present compounds have shown strong activity as agonists of hTRPM8. Assay results for compounds are illustrated in Table 1 below. Specifically, the Compounds listed in Table 1.1, e.g., Compounds 1.A1 to Compounds 1.A9 are the specific compounds as described herein. For example, Compounds 1.A1 is Example 1.1.

Converted amounts (≈) assume the structure as drawn.

T1 sequence (Q7Z2W7 whole entry): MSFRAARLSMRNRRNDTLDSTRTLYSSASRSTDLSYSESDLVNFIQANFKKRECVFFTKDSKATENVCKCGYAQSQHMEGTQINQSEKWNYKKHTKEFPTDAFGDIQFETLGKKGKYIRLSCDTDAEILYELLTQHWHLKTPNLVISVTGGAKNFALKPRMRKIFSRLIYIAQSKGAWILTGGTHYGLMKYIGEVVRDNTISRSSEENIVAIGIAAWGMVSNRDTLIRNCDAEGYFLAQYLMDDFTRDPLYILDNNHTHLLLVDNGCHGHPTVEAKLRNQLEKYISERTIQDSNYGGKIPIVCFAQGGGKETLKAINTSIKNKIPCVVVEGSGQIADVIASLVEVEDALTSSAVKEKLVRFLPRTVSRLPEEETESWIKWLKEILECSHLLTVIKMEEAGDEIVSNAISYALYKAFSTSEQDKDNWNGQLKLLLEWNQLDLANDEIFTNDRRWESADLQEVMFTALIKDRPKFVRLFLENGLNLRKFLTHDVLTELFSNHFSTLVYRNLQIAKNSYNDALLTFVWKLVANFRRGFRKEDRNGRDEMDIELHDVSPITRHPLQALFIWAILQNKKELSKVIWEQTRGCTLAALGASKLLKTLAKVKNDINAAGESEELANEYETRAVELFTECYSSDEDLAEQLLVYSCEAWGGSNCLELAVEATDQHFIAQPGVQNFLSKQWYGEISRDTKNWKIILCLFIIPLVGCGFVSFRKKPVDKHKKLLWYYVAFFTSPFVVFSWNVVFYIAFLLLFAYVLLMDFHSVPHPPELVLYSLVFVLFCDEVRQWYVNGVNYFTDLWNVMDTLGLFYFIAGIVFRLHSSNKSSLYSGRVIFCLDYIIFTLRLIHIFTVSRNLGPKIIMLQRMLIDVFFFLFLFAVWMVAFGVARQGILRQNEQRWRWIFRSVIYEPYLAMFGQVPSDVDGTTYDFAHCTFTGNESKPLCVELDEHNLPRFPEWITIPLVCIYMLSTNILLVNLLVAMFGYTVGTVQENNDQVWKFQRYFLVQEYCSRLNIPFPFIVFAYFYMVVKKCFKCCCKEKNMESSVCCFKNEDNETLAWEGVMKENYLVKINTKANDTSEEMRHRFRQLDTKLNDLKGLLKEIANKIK

As to `CN1C(=O)N(CC(=O)c2cccnc2)C(=O)C1(C)C1CCCCC1` (stereo not drawn) [Compound 2.K3], in data set [1], the response was half-maximal at 172 nM (EC50) and the “EC50 Ratio (WS3)” value was 30.1. Further, the “Sensory Results” value in data set [2] turned out to be 30 uM~45 uM WS-3.
Take `CC1CCCC1C1(C)C(=O)N(CC(=O)c2cccc(O)c2)C(=O)N1C` (mixture of isomers) [Compound 2.G3]: in data set [1], the EC50 was 146 nM and the “EC50 Ratio (WS3)” value was determined as 32.6. Also, the “Sensory Results” value in data set [2] was found to be 15 uM < 45 uM WS-3.
As for `CN1C(=O)N(CC(=O)c2ccc[nH]2)C(=O)C1(C)C1CCCCC1` (stereo not drawn) [Compound 2.J3], in data set [1], the concentration giving a half-maximal response (EC50) amounted to 166 nM and the “EC50 Ratio (WS3)” value worked out at 32.1. In data set [2], the “Sensory Results” value was 15 uM~45 uM WS-3.
Taken in the same sequence, the figures for `CN1CC(C)(C2=CCCCC2)C(=O)N(CC(=O)c2ccccc2)C1=O` (stereo not drawn) [Compound 2.A1] were 135 nM, 54.6 and 10 uM < 45 uM WS-3.
Consider `CC1=NN(CC(=O)c2ccccc2)C(=O)C1(C)C1CCCCC1` (stereo not drawn) [Example A1], for which the “Cooling compared with 0 μM and 45 μM WS-3 (panel conclusion)” value in data set [3] (5 μM) was “significantly more cooling than 0 μM WS-3 (p<0.05) and not significantly different in cooling than 45 μM WS-3”.
In the case of `C[C@H](C(=O)N(C)CC(=O)c1ccccc1)C1CCCCC1` [Example 3.2, (S)-2-Cyclohexyl-N-methyl-N-(2-oxo-2-phenylethyl)propanamide], the “Cooling compared with 0 μM and 45 μM WS-3 (panel conclusion)” value in data set [4] (5 μM) is “significantly more cooling than 0 μM WS-3 (p<0.05) and not significantly different in cooling than 45 μM WS-3”. The “Average Cooling” value in data set [4] (5 μM, 15 point line scale) came out at 4.0.
As to `CCNC(=O)C1CC(C)CCC1C(C)C` (stereo not drawn) [WS-3, N-Ethyl-p-menthane-3-carboxamide, reference compound], the “Average Cooling” value in data set [4] (45 μM WS-3 control) is 4.5; in data set [3] (Table 1.2, 45 μM WS-3 control, n = 30), 4.4; in data set [3] (Table 1.3, 45 μM WS-3 control, n = 28) it was 5.4; in data set [3] (Table 1.4, 45 μM WS-3 control, n = 28), 4.1. Besides, the “Cool intensity compared with LSB (line scale conclusion)” value in data set [2] (60 μM in LSB at pH 7.1) is “significantly higher in cool intensity than LSB”. The “Ave Cool” value in data set [2] (Table 2.1, 60 μM WS-3, n = 10) stood at 3.7.
For the compound `CCN1C(=O)N(CC(=O)c2ccccc2)C(=O)C1(C)C1CCCCC1` (stereo not drawn) [Compound 2.P3], in data set [1], a half-maximal response (EC50) required 230 nM and the “EC50 Ratio (WS3)” value worked out at 38.1. For the same compound, in data set [2], the “Sensory Results” value came to 15 uM < 45 uM WS-3.
With `CC(C)(C(=O)NCC(=O)c1cccc(F)c1)C1CCCCC1` [Example 3.B7], in data set [5], the 50% effective concentration (EC50) was found to be 257 nM and the “EC50 Ratio (WS3)” value is listed as 18.6.
For `CC(C)(C(=O)NCC(=O)c1ccc(O)cc1)C1CCCCC1` [Example 3.C5], in data set [5], a half-maximal response (EC50) required 504 nM and the “EC50 Ratio (WS3)” value turned out to be 9.4.
Consider `CC(C)(C(=O)NCC(=O)c1cc(O)cc(O)c1)C1CCCCC1` [Example 3.A9], for which, in data set [5], the 50% effective concentration (EC50) worked out at 87 nM and the “EC50 Ratio (WS3)” value was 66.5.
`CC1=NN(CC(=O)c2ccccc2)C(=O)C1(C)C1CCCCC1` (stereo not drawn) [Example 1.1, 4-cyclohexyl-3,4-dimethyl-1-(2-oxo-2-phenylethyl)-1H-pyrazol-5(4H)-one]: the “Average Cooling” value in data set [3] (Table 1.2, 5 μM, n = 30) was found to be 4.7. The “Sensory Results” value in data set [3] (compound concentration compared in cooling intensity with 45 uM WS-3, LSB pH ~7.1, 0.1% ethanol) is 5 uM~45 uM WS-3. The solubility in data set [6] was 337 µM (≈ 105 µg/mL). Also, in data set [7], the 50% effective concentration (EC50) was determined as 34 nM and the “hTRPM8 EC50 Ratio” value was 100.0.
For `CN1C(=O)N(CC(=O)c2cccnc2)C(=O)C(C)(C2=CCCCC2)C1=O` (stereo not drawn), the melting point fell in the range of 109 to 111 °C.
`CC(C(=O)N(C)CC(=O)c1cccs1)C1CCCCC1` (stereo not drawn) [Example 3.A10]: in data set [5], the EC50 was determined as 59 nM and the “EC50 Ratio (WS3)” value is listed as 62.5.
Consider `CC(C)(C(=O)NCC(O)c1ccccc1)C1CCCCC1` (stereo not drawn) [Example 3.F8], for which, in data set [5], the EC50 stood at 4170 nM and the “EC50 Ratio (WS3)” value amounted to 1.1.
Taken in the same sequence, the figures for `C[C@H](C(=O)NNC(=O)c1ccccc1)C1CCCCC1` [Example 3.G1] were 6240 nM and 1.0.
With `CC1CCCC1C1(C)C(=O)N(CC(=O)c2ccc[nH]2)C(=O)N1C` (stereo not drawn) [Compound 2.N3], in data set [1], the concentration giving a half-maximal response (EC50) turned out to be 205 nM and the “EC50 Ratio (WS3)” value was 24.1. For the same compound, the “Sensory Results” value in data set [2] was found to be 15 uM < 45 uM WS-3.

One may read the EC50 as the midpoint of the concentration-response curve. A high value points to a need for much substance. By solubility is commonly meant how much of the substance goes into solution per volume. Low readings indicate a poorly soluble substance, high ones a readily soluble substance. The melting point is the temperature of the solid-liquid transition.

These data come from patent publication US11028052B2, “Compounds useful as modulators of TRPM8” (Firmenich Incorporated, priority 2013, dated 2021).
